Results published in the NIST ThermoML archive (doi:10.1016/j.jct.2012.10.004).
Numbers after ± are expanded uncertainties.

Conditions: Liquid, Vibrating tube method

CCCC[N+]1(C)CCCC1.O=S(=O)([N-]S(=O)(=O)C(F)(F)F)C(F)(F)F
mass density [kg/m3]
Conditions	100 kPa	1000 kPa	10000 kPa	20000 kPa	40000 kPa	60000 kPa	80000 kPa	100000 kPa	120000 kPa
278.15 K	1415.1 ± 1.4	1415.7 ± 1.4	1421.5 ± 1.4	1428 ± 1.5	1439.8 ± 1.6	1450.6 ± 1.8	1460.8 ± 2.1	1470.2 ± 2.3	1479.1 ± 2.6
298.15 K	1395.2 ± 1.4	1395.8 ± 1.4	1401.8 ± 1.4	1408.4 ± 1.5	1420.7 ± 1.6	1432.2 ± 1.8	1442.8 ± 2	1452.9 ± 2.3	1462.9 ± 2.6
313.15 K	1381.6 ± 1.4	1382.3 ± 1.4	1388.8 ± 1.4	1395.8 ± 1.5	1408.7 ± 1.6	1420.7 ± 1.8	1431.6 ± 2	1441.8 ± 2.2	1451.8 ± 2.5
333.15 K	1364 ± 1.4	1364.7 ± 1.4	1371.6 ± 1.4	1379 ± 1.5	1392.6 ± 1.6	1405.2 ± 1.7	1416.6 ± 2	1427.4 ± 2.2	1437.6 ± 2.5
348.15 K	1351.1 ± 1.4	1351.8 ± 1.4	1359.1 ± 1.4	1366.9 ± 1.5	1381.1 ± 1.6	1394 ± 1.7	1405.9 ± 1.9	1416.9 ± 2.2	1427.5 ± 2.4
373.15 K	1330.5 ± 10	1330.8 ± 10	1338.6 ± 10	1347 ± 10	1362.2 ± 10	1375.9 ± 10	1388.3 ± 10	1399.9 ± 10	1410.9 ± 10
398.15 K	1307.8 ± 10	1308.7 ± 10	1316.4 ± 10	1325.3 ± 10	1341.7 ± 10	1356.3 ± 10	1369.7 ± 10	1382 ± 10	1393.5 ± 10
